Assay results reported in publication PMC10055976, “Selection and evolution of disulfide-rich peptides via cellular protein quality control” (Chemical Science, 2023).
Where a SMILES comes first, the peptide text is derived from it. Bridges are numbered along the chain shown (N, C = ends).

Columns and labels:
[1] = biological target: T1, Keap1 kelch domain protein (Residues 321-609) (Homo sapiens, UniProt Q14145); experiment: Surface plasmon resonance (SPR) assay of oxidized peptides; type: binding; details: for Binding affinity to Keap1 (in words): major oxidized product, SPR, preliminary; for Binding affinity to Keap1 (in words) / SPR sensorgrams: binding of Keap1 (in words): 25 °C, pH 7.4; for SPR sensorgrams: binding of Keap1 (in words): oxidized peptide, HPLC purity >95%
T1 construct: Keap1 kelch domain protein (Residues 321-609, Homo Sapiens); made in house

[2] = Oxidative folding of peptides (HPLC); type: physicochemical; details: drp1 and drp4: 10 μM, 100 mM phosphate pH 7.4, 0.2 mM GSSG, drp2, drp3, k-1, k-2: 10 μM, same buffer with 6 M Gu·HCl and 0.2 mM GSSG, overnight, 37 °C
Description: (§1) We then deep-sequenced the DRPs enriched in P9, and a total of ∼1404 different sequences with the expected cysteine patterns were obtained (3 different scaffolds: 256, 742 and 406, respectively; dataset S3 and Fig. 4a). Sequences with stop codon(s) are very rare compared to that found in the previous selection (dataset S4), further confirming the success of the second-generation PQC-select. […] To chemically examine the foldability of the selected DRPs, four sequences were randomly selected for synthesis and oxidation. All of them can be specifically oxidized to a major product as determined using HPLC (Fig. 4b and S7 ^†). […] The disulfide pairing of drp1 was clearly shown by the ^1H–^1H NOESY spectra (Fig. S10 ^†).
Fig. 4 Identification and application of new DRPs selected from the second-generation PQC-select. (a) Top 5 enriched sequences for the three different scaffolds obtained from the second-generation PQC-select, scaffold M-2 (top), scaffold M-6 (middle) and scaffold M-9 (bottom). (b) HPLC chromatograms showing the oxidation of drp1, drp2, drp3 and drp4 in phosphate buffers (pH 7.4, 100 mM) containing 0.2 mM GSSG or 6 M Gu·HCl and 0.2 mM GSSG. […]
Reduced peptides (drp1 and 4, 10 μM) was dissolved in 100 mM phosphate buffer (pH 7.4) containing 0.2 mM GSSG. […] After that, oxidative folding of all the peptides was further analysed using HPLC and mass spectrometry . […]

[3] = Solution NMR structure and disulfide pairing of drp1; type: physicochemical; details: oxidized drp1, ~1 mM, 80% perdeuterated acetonitrile / 20% H2O, 302 K
Description: as §1, with “S10 ^†). […]” for “S10 ^†).”
without target protein were then added to half of the blocked phage respectively and incubated for 30 min on a rotating wheel. […]
Reduced peptides (drp1 and 4, 10 μM) was dissolved in 100 mM phosphate buffer (pH 7.4) containing 0.2 mM GSSG. […] After that, oxidative folding of all the peptides was further analysed using HPLC and mass spectrometry .
Drp1 were dissolved in 80% perdeuterated acetonitrile and 20% H2O at a final concentration of about 1 mM . […] Two dimensional (2D) 1H, 15N/13C HSQC spectra were recorded to obtain chemical shifts of heavy atoms […]
in backbone and side-chains. […] The NMR data were processed using NMRPipe/NMRDraw and analyzed using NMRFAM-SPARKY5. […]

T1 sequence (Q14145 321-609): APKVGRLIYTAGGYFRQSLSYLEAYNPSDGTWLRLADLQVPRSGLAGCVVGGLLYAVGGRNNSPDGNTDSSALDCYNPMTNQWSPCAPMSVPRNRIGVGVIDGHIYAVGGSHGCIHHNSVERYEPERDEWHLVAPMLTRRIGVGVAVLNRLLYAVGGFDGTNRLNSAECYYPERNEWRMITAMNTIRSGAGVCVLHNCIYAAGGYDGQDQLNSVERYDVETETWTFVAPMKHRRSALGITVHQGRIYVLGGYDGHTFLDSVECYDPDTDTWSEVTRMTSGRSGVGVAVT

Compound	Binding affinity to Keap1 (in words) [1]	SPR sensorgrams: binding of Keap1 (in words) ([1]; 50-3200 nM)	Kd ([1]; oxidized product (major), Biacore T200, 25 °C, biotinylated Keap1 on CAP chip, 10 mM phosphate pH 7.4, 50 μM EDTA, 0.05% Tween 20, 50-3200 nM, multiple cycle kinetics, 1:1 binding model, read-out: KD (equilibrium dissociation constant, SPR))	kon ([1]; oxidized product, Biacore T200, 25 °C, 10 mM phosphate pH 7.4, 50 μM EDTA, 0.05% Tween 20, multiple cycle kinetics, 1:1 binding model, local fit, read-out: ka (association rate constant))	koff ([1]; oxidized product, Biacore T200, 25 °C, 10 mM phosphate pH 7.4, 50 μM EDTA, 0.05% Tween 20, multiple cycle kinetics, 1:1 binding model, local fit, read-out: kd (dissociation rate constant))	Oxidative folding outcome (in words) [2]	Folding in solution by 1H–1H TOCSY (in words) [3]	3D structure and disulfide pairing by NMR (in words) ([3]; PDB 8GUC, 15 lowest-energy structures)
CC[C@H](C)[C@@H]1NC(=O)[C@@H]2CCCN2C(=O)[C@H](CCCNC(=N)N)NC(=O)[C@H](CCCNC(=N)N)NC(=O)[C@H]([C@@H](C)O)NC(=O)CNC(=O)[C@H](CCC(N)=O)NC(=O)[C@@H]2CSSC[C@H](NC(=O)[C@H](CCSC)NC(=O)[C@H](C)NC(=O)[C@H](CCCNC(=N)N)NC1=O)C(=O)N[C@@H](CC(N)=O)C(=O)N[C@@H](CC(=O)O)C(=O)N[C@@H](CO)C(=O)N[C@@H](C(C)C)C(=O)N1CCC[C@H]1C(=O)N[C@H]1CSSC[C@H](NC(=O)[C@@H](N)Cc3c[nH]c4ccccc34)C(=O)N3CCC[C@H]3C(=O)N3CCC[C@H]3C(=O)N[C@@H](CSSC[C@@H](C(N)=O)NC(=O)[C@@H]3CCCN3C(=O)[C@@H]3CCCN3C1=O)C(=O)N[C@@H](CCCNC(=N)N)C(=O)N[C@@H](Cc1ccccc1)C(=O)N[C@@H]([C@@H](C)O)C(=O)N[C@@H](CC(C)C)C(=O)N[C@@H](CO)C(=O)N[C@@H](CCC(=O)O)C(=O)N[C@@H](CCC(=O)O)C(=O)N[C@@H]([C@@H](C)O)C(=O)NCC(=O)N[C@@H](CCC(=O)O)C(=O)N2 [k-1] (H-WCPPCRFTLSEETGECQGTRRPIRAMCNDSVPCPPC-NH2; disulfide 2-33, 5-36, 16-27 (inferred))	submicromolar range	in a concentration-dependent manner	349 nM	54800 M⁻¹ s⁻¹	0.0191 s⁻¹	can be oxidized to a major product	–	–
H-GCPPCRFTLSPWVSPCSNPHWPIRAMCNDSVPCPPC-NH2 (also: bicyclic or more (positions not given here)) [drp1, CPPC disulfide-rich peptide selected by PQC-select; PDB 8GUC]	–	–	–	–	–	–	well-folded in solution	irregular but rigid loops and a short α-helix constrained through three disulfide bonds with the two CPPC motifs paired parallelly
H-WCPPCRFTLSPETGECQGTKRPIRAMCNDSVPCPPC-NH2 (also: bicyclic or more (positions not given here)) [k-2]	submicromolar range	in a concentration-dependent manner	–	–	–	can be oxidized to a major product	–	–
